Measurements published in patent US20230172915A1, “DHODH INHIBITOR FOR THE TREATMENT OF COVID-19” (priority 2020, published 2023).

Tested on: primary acute myeloid leukemia (AML) blast cells
Assay: Primary AML blast cell assay with and without uridine
Type: cell-based
Details: uridine 0, 3, 10, 30, or 100 µM
Protocol: FIG. 5 is a plot showing the fraction of total blasts relative to DMSO control vs PTC299 concentration in nM, from an assay of the ability of PTC299 to suppress DHODH activity in the presence of increasing concentrations of uridine (0, 3, 10, 30, or 100 µM) .
The ability of PTC299 to inhibit DHODH was further tested using primary acute myeloid leukemia (AML) blast cells that are reliant upon the de novo pyrimidine nucleotide pathway to obtain pyrimidine nucleotides.

## COc1ccc([C@H]2c3[nH]c4ccc(Cl)cc4c3CCN2C(=O)Oc2ccc(Cl)cc2)cc1 [PTC299, 4-chlorophenyl (S)-6-chloro-1-(4-methoxyphenyl)-1,3,4,9-tetrahydro-2H-pyrido[3,4-b]indole-2-carboxylate]
  effect of exogenous uridine on PTC299-dependent cytotoxicity: reversal of the effects of PTC299-dependent cytotoxicity by the addition of exogenous uridine
